The results in this text go back to patent US20220073521A1, “PYRIMIDINE AND FIVE-MEMBERED NITROGEN HETEROCYCLE DERIVATIVE, PREPARATION METHOD THEREFOR, AND MEDICAL USES THEREOF” (Tuojie Biotech (Shanghai) Co., Ltd., priority 2018, published 2022).

For test [1], the target named is T1, SHP2 E76K (Homo sapiens, UniProt Q06124, E76K).
T1 construct: recombinantly expressed full-length SHP2 (aa 1-593) with E69K and E76K; purchased Novoprotein Scientific Inc
T1 sequence (Q06124 1-593 E76K): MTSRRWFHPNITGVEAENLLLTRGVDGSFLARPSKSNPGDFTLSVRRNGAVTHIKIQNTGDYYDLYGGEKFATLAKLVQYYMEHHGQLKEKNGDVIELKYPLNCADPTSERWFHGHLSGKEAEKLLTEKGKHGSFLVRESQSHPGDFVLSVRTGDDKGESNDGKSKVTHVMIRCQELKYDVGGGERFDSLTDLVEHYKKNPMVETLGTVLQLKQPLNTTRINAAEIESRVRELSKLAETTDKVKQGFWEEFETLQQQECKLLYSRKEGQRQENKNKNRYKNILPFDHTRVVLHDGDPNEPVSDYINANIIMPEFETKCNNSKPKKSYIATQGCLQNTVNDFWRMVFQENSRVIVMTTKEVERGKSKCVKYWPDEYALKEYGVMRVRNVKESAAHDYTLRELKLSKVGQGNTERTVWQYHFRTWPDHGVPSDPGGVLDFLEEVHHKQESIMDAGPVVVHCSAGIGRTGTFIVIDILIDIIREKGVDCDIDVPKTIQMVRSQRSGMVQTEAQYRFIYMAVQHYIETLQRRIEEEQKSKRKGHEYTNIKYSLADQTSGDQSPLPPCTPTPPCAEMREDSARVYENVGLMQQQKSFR
The test can be described thus: In vitro activity on SHP2 mutant E76K phosphatase. The test is classed as biochemical.
Procedure: (§1) The reaction solution was shaked (350 rpm) at room temperature for 30 minutes. The reaction substrate DiFMUP with a final concentration of 30 μM was added, and the reaction solution was reacted at room temperature for 30 minutes. The phosphatase reaction was stopped by adding 5 μL of stop solution (60 mM HEPES, pH 7.5, 0.2% SDS).

The subject of test [2] is KYSE-520 cells. The test can be described thus: KYSE-520 cell proliferation experiment (CellTiter-Glo, 7 days). As to conditions: Homo sapiens. It is filed as cell-based. (In general: In ATP-based viability assays light output follows the ATP content of the culture.)
Test [3] addresses T2, SHP2 E69K (Homo sapiens, UniProt Q06124, E69K).
T2 construct: recombinantly expressed full-length SHP2 (aa 1-593) with E69K and E76K; purchased Novoprotein Scientific Inc
T2 sequence (Q06124 1-593 E69K): T1 sequence (Q06124 1-593 E76K) with E69K, K76E
Nature of the test: In vitro activity on SHP2 mutant E69K phosphatase. The test is classed as biochemical.
Procedure: as §1

Test [4] has as its system p-ERK in KYSE-520 cells. Nature of the test: Determination of p-ERK in KYSE-520 cells (HTRF). The test is classed as cell-based. The following applies: Homo sapiens. In general terms: In TR-FRET formats the signal depends on donor and acceptor labels being close together.

Where a chain is given by its changes, count along the chain named. Read-outs that look alike come from different tables or passages of the source.

Consider `CNc1nccc(Sc2c(C)nc(N3CCC4(CC3)Cc3ncccc3[C@H]4N)n3ccnc23)c1Cl` [Example 41, (S)-1′-(8-((3-Chloro-2-(methylamino)pyridin-4-yl)thio)-7-methylimidazo[1,2-c]pyrimidin-5-yl)-5,7-dihydrospiro[cyclopenta[b]pyridine-6,4′-piperidin]-5-amine], for which the 50% inhibitory concentration (IC50) in test [1] (SHP2 E76K the activated polypeptide was added IC50, activated polypeptide IRS1 added) was 134 nM; in test [1] (SHP2 E76K the activated polypeptide was not added IC50, activated polypeptide not added), 5.4 nM; in test [2], 58.3 nM; in test [3] (SHP2 E69K the activated polypeptide was added IC50, activated polypeptide IRS1 added), 8.5 nM; in test [3] (SHP2 E69K the activated polypeptide was not added IC50, activated polypeptide not added), 0.91 nM; in test [4] (2 hours) it was 14 nM.

Regarding `CNc1nccc(Sc2cnc(N3CCC4(CC3)Cc3ncccc3[C@H]4N)n3ccnc23)c1Cl` [Example 43, (S)-1′-(8-((3-Chloro-2-(methylamino)pyridin-4-yl)thio)imidazo[1,2-c]pyrimidin-5-yl)-5,7-dihydrospiro[cyclopenta[b]pyridine-6,4′-piperidin]-5-amine], the IC50 in test [1] (activated polypeptide IRS1 added, read-out: SHP2 E76K the activated polypeptide was added IC50) was 78 nM; in test [1] (activated polypeptide not added, read-out: SHP2 E76K the activated polypeptide was not added IC50), 4.2 nM; in test [2] it was 30.4 nM; in test [3] (activated polypeptide IRS1 added, read-out: SHP2 E69K the activated polypeptide was added IC50) it was 7.1 nM; in test [3] (activated polypeptide not added, read-out: SHP2 E69K the activated polypeptide was not added IC50) it was 0.78 nM; in test [4] (KYSE-520, 2 h) it was 4.8 nM.

The IC50 is the concentration at which inhibition is half-maximal.
